Read-outs that look alike come from different tables or passages of the source. Values belong to the compound of their own block, whether it stands above or below them.
Experiments:
[1] = Solubility (physicochemical properties of isolated compounds); conditions: water, hexane, methanol, DMSO
[2] = Change over time in stability in PBS (phosphate buffer); format: physicochemical; conditions: 100 μg/ml in PBS, 37° C.
Experimental: Vinaxanthone (SPF-3059-5) and SPF-3059-1 were each dissolved in PBS (Dulbecco's PBS(-)) to a concentration of 100 μg/ml. The obtained solutions were preserved at 37° C., and the amount of the agent remaining in the solution was quantified by HPLC in individual time points from initiation of the preservation until 4 weeks after initiation of the preservation, so that a change over time in the remaining percentages was examined. The same HPLC conditions as those of Example 10 were applied.

[3] = molecular target: T1, mouse semaphorin 3A (Sema3A) (Mus musculus, UniProt O08665); assay: Inhibitory activity on collapse activity of Sema3A (growth cone retraction, chicken embryo dorsal root ganglion); format: cell-based
T1 sequence (O08665 21-772): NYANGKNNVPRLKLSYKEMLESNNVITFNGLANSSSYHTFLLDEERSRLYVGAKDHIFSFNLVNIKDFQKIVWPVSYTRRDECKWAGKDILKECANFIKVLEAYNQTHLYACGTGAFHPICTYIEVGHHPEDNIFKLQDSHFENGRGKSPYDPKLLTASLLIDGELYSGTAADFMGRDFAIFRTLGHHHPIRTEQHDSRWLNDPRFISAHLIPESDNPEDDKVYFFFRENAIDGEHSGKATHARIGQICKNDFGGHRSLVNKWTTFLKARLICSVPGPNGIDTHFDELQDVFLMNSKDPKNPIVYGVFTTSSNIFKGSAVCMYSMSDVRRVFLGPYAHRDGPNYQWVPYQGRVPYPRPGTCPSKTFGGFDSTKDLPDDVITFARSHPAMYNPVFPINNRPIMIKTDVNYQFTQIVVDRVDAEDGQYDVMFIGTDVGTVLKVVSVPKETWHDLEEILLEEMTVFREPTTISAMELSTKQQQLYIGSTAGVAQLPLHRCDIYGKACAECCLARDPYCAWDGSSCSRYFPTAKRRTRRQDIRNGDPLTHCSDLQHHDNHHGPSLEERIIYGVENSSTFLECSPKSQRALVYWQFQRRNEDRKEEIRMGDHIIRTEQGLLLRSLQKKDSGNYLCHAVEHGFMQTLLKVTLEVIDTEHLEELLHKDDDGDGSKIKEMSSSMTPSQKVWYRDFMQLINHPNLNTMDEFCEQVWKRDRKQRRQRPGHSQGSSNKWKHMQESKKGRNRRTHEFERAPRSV
Experimental: A polylysine-coated 96-well plate (Sumitomo Bakelite Co., Ltd.) was further coated with laminin (20 μg/ml laminin, room temperature, 1 hour). Then, 100 μl of a medium (F12 medium containing 10% fetal bovine serum, 20 ng/ml NGF, 100 units/ml penicillin, and 100 μg/ml streptomycin) was added to each well. Thereafter, a dorsal root ganglion excised from a 7-day-old chicken embryo was inoculated into the resulting well, and the obtained mixture was then cultured under conditions consisting of 16 to 20 hours, 5% CO2 and 37° C. Thereafter, the compounds described in Example 3 above were each added in different concentrations to the resulting culture, and the obtained mixture was then cultured for 1 hour. Thereafter, 2 units/ml mouse semaphorin 3A (Sema3A) was added to the culture, and the obtained mixture was further cultured for 1 hour. One hour after initiation of the culture, glutaraldehyde was added to the culture, such that it promptly could reach a final concentration of 1%. Then, the obtained mixture was then left at a room temperature for 15 minutes to fix a tissue section. Thereafter, the percentage of the retracted growth cone was measured under a microscope. A well, to which no Sema3A had been added, was used as a control. The percentage of growth cone retraction in a negative control group (to which neither the compound nor Sema3A was added) was defined as (A)%; the percentage of growth cone retraction in a positive control group (to which the compound had not been added but Sema3A was added) was defined as (B)%; and the percentage of growth cone retraction in a test group (to which both the compound and Sema3A were added) was defined as (C)%. The concentration of each compound that held the formula C=(A+B)/2 was defined as an IC50 value.

[4] = Retention of vinaxanthone in corneal tissues after eye drops administration; format: in vivo; conditions: rabbit
Experimental: Rabbits (Kbs: JW, healthy, male, body weight: 2.00 to 2.49 kg) were each administered with 50 μL of a PBS solution (0.12 M phosphate buffer (pH 7.4)) of vinaxanthone (0.5, 1.5 and 5.0 mg/mL) via eye drops administration onto the cornea of the right eye, and their eyes were then closed for 30 seconds. Thereafter, 0.5, 2, and 6 hours after completion of the administration, the rabbits were subjected to euthanasia, and the excised eyeballs were then washed with a normal saline. Thereafter, the cornea was collected from each eyeball. The cornea was homogenized, and vinaxanthone was then extracted therefrom. A change over time in the content and concentration of vinaxanthone in the corneal tissues was examined using HPLC.

[5] = test system: corneal sensory nerve in corneal graft; assay: Mouse keratoplasty model: regeneration of nerve fibers in corneal graft, corneal sensitivity, corneal vascularization; format: in vivo; conditions: vs control group
Source text: In this experiment, there were used genetically modified mice (P0-Cre/Floxed-EGFP mouse), in which corneal parenchymal cells, corneal endothelial cells, and nerves expressed a type of fluorescent protein, Green Fluorescent Protein (GFP), in the cornea. Using these mice, corneal sensory nerve fibers traveling in the cornea can easily be observed by removing a layer of corneal endothelial cells.
The cornea derived from a syngeneic wild-type mouse was transplanted into each of the above-mentioned mice. Thereafter, 50 ul of vinaxanthone (which had been dissolved in Rinderon (1 mg/ml betamethasone sodium phosphate injection solution) to a concentration of 0.1 mg/mL) was administered to the mice via subconjunctival injection immediately after completion of the operation and then, every two days in a total of 11 times. Only a solvent containing no drugs was administered in the same amount as described above to a control group. The removal of the suture was conducted one week after completion of the operation. Three weeks after completion of the operation, corneal sensitivity was evaluated, the mice were then subjected to euthanasia, and eyeballs were then excised. A comparison was made regarding the regeneration of nerve fibers in the corneal graft. Corneal sensitivity was evaluated by measuring corneal sensitivity in the center of the corneal graft every week after completion of the operation, using a Cochet-Bonnet corneal esthesiometer. […]
Thereafter, a total of the lengths thereof were measured, and a comparison was then made between the vinaxanthone administration group and the control group.

Compound: CC(=O)c1cc2c(=O)c3cc(O)c(O)cc3oc2c(C(C)=O)c1-c1coc2cc(O)c(O)cc2c1=O [SPF-3059-26]
Solubility [1]: Insoluble in water and hexane, soluble in methanol and DMSO

Time until decomposed in an almost total amount in PBS [2]: approximately 1 week
Compound: CC(=O)c1c(C)c(C(=O)C2COc3cc(O)c(O)c(C(=O)O)c3C2=O)cc2c(=O)c3c(C(=O)O)c(O)c(O)cc3oc12 (centres unmarked) [SPF-3059-1, reference compound]

Compound: CC(=O)c1cc2c(=O)c3c(C(=O)O)cc(O)cc3oc2c(C(C)=O)c1-c1coc2cc(O)c(O)cc2c1=O [SPF-3059-25]
Solubility [1]: Insoluble in water and hexane, soluble in methanol and DMSO

Compound: CC(=O)c1cc2c(=O)c3c(C(=O)O)c(O)c(O)cc3oc2c(C(C)=O)c1-c1coc2cc(O)cc(C(=O)O)c2c1=O [SPF-3059-12]
Solubility [1]: Insoluble in water and hexane, soluble in methanol and DMSO

IC50 ([3]; as quoted in Example 2, converted from ng/mL, read-out: IC50 value obtained by the in vitro experiment (inhibitory activity on the collapse activity of Sema3A in Example 4) (converted)): 130 nM | IC50 ([3]; as quoted in Example 2, read-out: IC50 value obtained by the in vitro experiment (inhibitory activity on the collapse activity of Sema3A in Example 4) (converted)): 130 nM | Time for which the compound was stable in PBS [2]: ≥ 4 weeks | Remaining percentage in PBS ([2]; until 4 weeks after initiation of the preservation, HPLC): ≥ 96% | concentration at 6 h ([4]; male, Kbs: JW, cornea, topical, 5 mg/mL (50 μL eye drop), 50 μL eye drops of 5.0 mg/mL PBS solution, 6 hours after administration, read-out: Concentration of vinaxanthone retained in the cornea): > 75 ng/mL | Time for which the concentration in the cornea considered necessary for the expression of drug effects was retained ([4]; eye drop of 0.5 mg/mL solution): 0.5 h | Vascularization into the corneal graft (total length of CD31-positive newly formed blood vessels) ([5]; three weeks after operation, no significant difference): not promoted
Compound: CC(=O)c1cc2c(=O)c3c(C(=O)O)c(O)c(O)cc3oc2c(C(C)=O)c1-c1coc2cc(O)c(O)c(C(=O)O)c2c1=O [SPF-3059-5, vinaxanthone]
Transfer into the corneal tissues ([4]; eye drops 0.5, 1.5 and 5.0 mg/mL): transferred into the corneal tissues in an applied concentration/dose dependent manner | Regeneration of nerve fibers in the corneal graft (total length of regenerated fibers) ([5]; 50 ul of 0.1 mg/mL subconjunctival injection, every two days, 11 times, three weeks after operation, p<0.01): promoted | Corneal sensitivity in the center of the corneal graft (Cochet-Bonnet corneal esthesiometer, blink reflection) ([5]; three weeks after completion of the operation, p<0.01): improved

Compound: CC(=O)c1cc2c(=O)c3c(C(=O)O)c(O)c(O)cc3oc2c(C(C)=O)c1-c1coc2cc(O)c(O)cc2c1=O [SPF-3059-24]
Solubility [1]: Insoluble in water and hexane, soluble in methanol and DMSO

Compound: CC(=O)c1cc2c(=O)c3c(C(=O)O)cc(O)cc3oc2c(C(C)=O)c1-c1coc2cc(O)c(O)c(C(=O)O)c2c1=O [SPF-3059-4]
Solubility [1]: Insoluble in water and hexane, soluble in methanol and DMSO

IC50 ([3]; 2 units/ml mouse Sema3A, 7-day-old chicken embryo dorsal root ganglion, read-out: IC50 (inhibition of Sema3A-induced growth cone retraction)): < 188 nM
Compound: CC(=O)c1cc2c(=O)c3cc(O)c(O)cc3oc2c(C(C)=O)c1-c1coc2cc(O)c(O)c(C(=O)O)c2c1=O [SPF-3059-2]

Source: patent US20140018416A1, “THERAPEUTIC AGENT FOR CORNEAL SENSORY NERVE DAMAGE CONTAINING SEMAPHORIN INHIBITOR AS ACTIVE INGREDIENT” (DAINIPPON SUMITOMO PHARMA CO., LTD, priority 2011, published 2014)
